Assay results published in patent EP0638573A1, “Crystalline hydrates of cephalosporin and process for preparation thereof” (LUCKY LTD., priority 1993, dated 1995).
≈ marks a conversion by molar mass, not a printed value. Like-named read-outs stand apart in the source and are kept apart here.

Tests used:
[1] = tested on: Acinetobacter calcoaceticus ATCC15473; test: MIC, doubling dilution method (NCCLS), Muller-Hinton agar; format: cell-based; settings: 20 hours at 37°C
Method: (§1) Antibiotic activities of the crystalline compound obtained in Example 1 were evaluated by way of determining the minimum inhibitory concentration(MIC) for the microorganisms listed in Table 2 in vitro.
(§2) The […] was determined in accordance with the doubling dilution method(NCCLS). After the test compound was dispersed in a Muller-Hinton agar medium, the medium was inoculated with 2µl of a test strain having 10⁷ CFU/ml and, then, incubated for 20 hours at 37°C.
(§3) For comparison, antibiotic abilities of the amorphous formula(I) cephalosporin obtained in Preparation Example were also determined as above; and are shown in Table 2.

[2] = tested on: Bacillus cereus ATCC11778; test: as above; format: cell-based; settings: 20 hours at 37°C
Method: as §1, §2, §3

[3] = tested on: Citrobacter freundii ATCC8090; test: as above; format: cell-based; settings: 20 hours at 37°C
Method: as §1, §2, §3

[4] = tested on: Enterobacter aerogenes ATCC29751; test: as above; format: cell-based; settings: 20 hours at 37°C
Method: as §1, §2, §3

[5] = tested on: Enterobacter cloacae ATCC27508; test: as above; format: cell-based; settings: 20 hours at 37°C
Method: as §1, §2, §3

[6] = tested on: Escherichia coli ATCC10536; test: as above; format: cell-based; settings: 20 hours at 37°C
Method: as §1, §2, §3

[7] = tested on: Escherichia coli ATCC25922; test: as above; format: cell-based; settings: 20 hours at 37°C
Method: as §1, §2, §3

[8] = tested on: Klebsiella pneumoniae ATCC10031; test: as above; format: cell-based; settings: 20 hours at 37°C
Method: as §1, §2, §3

[9] = tested on: Micrococcus luteus ATCC9341; test: as above; format: cell-based; settings: 20 hours at 37°C
Method: as §1, §2, §3

[10] = tested on: Morganella morganii ATCC8076h; test: as above; format: cell-based; settings: 20 hours at 37°C
Method: as §1, §2, §3

[11] = tested on: Proteus mirabilis ATCC25933; test: as above; format: cell-based; settings: 20 hours at 37°C
Method: as §1, §2, §3

[12] = tested on: Proteus vulgaris ATCC6059; test: as above; format: cell-based; settings: 20 hours at 37°C
Method: as §1, §2, §3

[13] = tested on: Providencia rettgeri ATCC9250; test: as above; format: cell-based; settings: 20 hours at 37°C
Method: as §1, §2, §3

[14] = tested on: Pseudomonas aeruginosa ATCC10145; test: as above; format: cell-based; settings: 20 hours at 37°C
Method: as §1, §2, §3

[15] = tested on: Pseudomonas aeruginosa ATCC25619; test: as above; format: cell-based; settings: 20 hours at 37°C
Method: as §1, §2, §3

[16] = tested on: Pseudomonas aeruginosa ATCC27853; test: as above; format: cell-based; settings: 20 hours at 37°C
Method: as §1, §2, §3

[17] = tested on: Salmonella typhimurium ATCC14028; test: as above; format: cell-based; settings: 20 hours at 37°C
Method: as §1, §2, §3

[18] = tested on: Serratia marcescens ATCC27117; test: as above; format: cell-based; settings: 20 hours at 37°C
Method: as §1, §2, §3

[19] = tested on: Shigella flexneri ATCC11836; test: as above; format: cell-based; settings: 20 hours at 37°C
Method: as §1, §2, §3

[20] = tested on: Shigella sonnei ATCC11060; test: as above; format: cell-based; settings: 20 hours at 37°C
Method: as §1, §2, §3

[21] = tested on: Staphylococcus aureus ATCC10537; test: as above; format: cell-based; settings: 20 hours at 37°C
Method: as §1, §2, §3

[22] = tested on: Staphylococcus aureus ATCC6538p; test: as above; format: cell-based; settings: 20 hours at 37°C
Method: as §1, §2, §3

[23] = tested on: Streptococcus epidermidis ATCC12228; test: as above; format: cell-based; settings: 20 hours at 37°C
Method: as §1, §2, §3

[24] = tested on: Streptococcus faecalis ATCC29212; test: as above; format: cell-based; settings: 20 hours at 37°C
Method: as §1, §2, §3

[25] = Heat-stability test: storage at 50°C, decomposition by liquid chromatography; format: physicochemical
Method: The crystalline hydrate of the compound obtained in Example 1 and the amorphous cephalosporin obtained in Preparation Example were stored at 50°C. After the respective periods of one week and two weeks, the heat stability of the compounds was measured by determining their level of decomposition through the use of liquid chromatography.

[26] = tested on: Bacillus megaterium ATTCC9885; test: MIC, doubling dilution method (NCCLS), Muller-Hinton agar; format: cell-based; settings: Priestia megaterium, 20 hours at 37°C
Method: as §1, §2, §3

Compound	MIC [1] [mg/L]	MIC [3] [mg/L]	MIC [4] [mg/L]	MIC [6] [mg/L]	MIC [7] [mg/L]	MIC [8] [mg/L]	MIC [12] [mg/L]	MIC [15] [mg/L]	MIC [16] [mg/L]	MIC [17] [mg/L]	MIC [18] [mg/L]	MIC [20] [mg/L]	Decomposition Rate ([25]; storage period (50°C): 0) [%]	Decomposition Rate ([25]; storage period (50°C): 1 week) [%]	Decomposition Rate ([25]; storage period (50°C): 2 week) [%]	other results
Cc1c(N)nc(SCC2=C(C(=O)[O-])N3C(=O)C(NC(=O)/C(=N\OC(C)(C)C(=O)O)c4csc(N)n4)[C@H]3SC2)[n+](N)c1N (stereo partly shown) [Amorphous Compound, 7-[(Z)-2-(2aminothiazole-4-yl)-2-(2-carboxyprop-2-oxyimino)acetamido]-3-(5-methyl-1,4,6-triamino-pyrimidinium-2-yl)thiomethyl-3-cephem-4-carboxylate, reference compound]	4 (≈ 6.26 µM)	0.063 (≈ 0.0986 µM)	1 (≈ 1.57 µM)	0.063 (≈ 0.0986 µM)	0.13 (≈ 0.204 µM)	0.063 (≈ 0.0986 µM)	0.063 (≈ 0.0986 µM)	2 (≈ 3.13 µM)	2 (≈ 3.13 µM)	0.13 (≈ 0.204 µM)	0.13 (≈ 0.204 µM)	0.063 (≈ 0.0986 µM)	0	4.2	5.2	MIC [2]: 128 mg/L (≈ 200 µM); MIC [5]: 0.016 mg/L (≈ 0.0251 µM); MIC [9]: 0.5 mg/L (≈ 0.783 µM); MIC [10]: <=0.008 mcg/ml; MIC [11]: 0.031 mg/L (≈ 0.0485 µM); MIC [13]: <=0.008 mcg/ml; MIC [14]: 2 mg/L (≈ 3.13 µM); MIC [19]: 0.031 mg/L (≈ 0.0485 µM); MIC [21]: 2 mg/L (≈ 3.13 µM); MIC [22]: 4 mg/L (≈ 6.26 µM); MIC [23]: 2 mg/L (≈ 3.13 µM); MIC [24]: >128 mg/L
Cc1c(N)nc(SCC2=C(C(=O)[O-])N3C(=O)C(NC(=O)/C(=N\OC(C)(C)C(=O)O)c4csc(N)n4)[C@H]3SC2)[n+](N)c1N (stereo partly shown) [Test Compound, 7-[(Z)-2-(2-aminothiazole-4-yl)-2-(2-carboxyprop-2-oxyimino)acetamido]-3-(5-methyl-1,4,6-triaminopyrimidinium-2-yl)thiomethyl-3-cephem-4-carboxylate]	1 (≈ 1.57 µM)	0.016 (≈ 0.0251 µM)	0.25 (≈ 0.391 µM)	0.031 (≈ 0.0485 µM)	0.031 (≈ 0.0485 µM)	0.016 (≈ 0.0251 µM)	0.031 (≈ 0.0485 µM)	0.5 (≈ 0.783 µM)	0.5 (≈ 0.783 µM)	0.063 (≈ 0.0986 µM)	0.063 (≈ 0.0986 µM)	0.031 (≈ 0.0485 µM)	0	0.4	0.9	MIC ([2]; Bacillus cereus, ATCC11778, 20 h, read-out: MIC): 64 mg/L (≈ 100 µM); MIC [26]: 0.13 mg/L (≈ 0.204 µM); MIC ([5]; Enterobacter cloacae, ATCC27508, 20 h, read-out: MIC): ≤ 0.008 mg/L; MIC ([9]; Micrococcus luteus, ATCC9341, 20 h, read-out: MIC): 0.25 mg/L (≈ 0.391 µM); MIC ([10]; read-out: MIC): ≤ 0.008 mg/L; MIC ([11]; Proteus mirabilis, ATCC25933, 20 h, read-out: MIC): 0.016 mg/L (≈ 0.0251 µM); MIC ([13]; read-out: MIC): ≤ 0.008 mg/L; MIC ([14]; Pseudomonas aeruginosa, ATCC10145, 20 h, read-out: MIC): 1 mg/L (≈ 1.57 µM); MIC ([19]; Shigella flexneri, ATCC11836, 20 h, read-out: MIC): 0.016 mg/L (≈ 0.0251 µM); MIC ([21]; read-out: MIC): 2 mg/L (≈ 3.13 µM); MIC ([22]; read-out: MIC): 4 mg/L (≈ 6.26 µM); MIC ([23]; Streptococcus, ATCC12228, 20 h, read-out: MIC): 1 mg/L (≈ 1.57 µM); MIC ([24]; Enterococcus faecalis, read-out: MIC): > 128 mg/L
